{
  "source": "patent US8304455B2",
  "about": "“Compositions and methods of their use for improving the condition and appearance of skin” (Avon Products, Inc, priority 2004, dated 2012)",
  "assay_type_in_all_cases": "cell-based",
  "settings_in_all_cases": "normal human epidermal keratinocytes; transcript numbers normalized to vehicle control; replicate values",
  "key": {"Frizzled 10": {"test_system": "Frizzled 10", "assay": "PCR gene expression, Frizzled 10", "method": "(§1) A vial of cryopreserved normal human epidermal keratinocytes (Adult or Neonatal) was removed from liquid N2 and placed in a 37° C. water bath for 1-2 minutes, or until completely thawed. The vial was then removed from the water bath and the excess water was wiped off. The vial was placed into a cell culture hood for sterility. The vial was wiped with 70% ethanol to air dry for 30 seconds. While in the cell culture hood, the cells were removed from the vial and placed into a 50 ml tube. The appropriate growth media (5 ml) was added drop wise while agitating the tube, allowing uniform mixture of the cells and medium while limiting cell death due to osmotic changes caused by freezing media, Medium (25 ml) was added to the 50 ml tube to bring the volume up to 30 ml. Into two 75 cm2 flasks, medium/cell solution (15 ml) was added, or to six 25 cm2 flasks, medium (5 ml) was added. Flasks were recapped and placed horizontally in a 37° C. humidified incubator with 5% CO2 for 24 hours. After 24 hours, the old medium was aspirated and fresh room temperature growth medium (15 ml) was added onto the cells. Prior to adding the fresh growth medium, it was brought up to room temperature using a room temperature water bath without the cover. The flasks containing cells with fresh media were placed back into the 37° C. incubator. Flasks containing the old media was replaced with fresh media repeatedly until the desired confluence (75%) was reached.\n(§2) When the cells reached the desired confluency, they were removed from the incubator and the media was aspirated off using a vacuum trap. Hank's Buffered Saline Solution (HBSS; 10 ml of 1X; Mediatech, Inc.; Herndon, Va.) was placed into the flask and the entire surface area rinsed. The HBSS was then aspirated. Trypsin (1X; Mediatech, Inc.) was added in a 5 ml volume. The flasks were placed back into the incubator for 8 minutes. The flasks were taken from the incubator and 15 ml of Trypsin Neutralizing Solution (1X; Cascade Biologics; Portland, Oreg.) was added to each flask to neutralize the trypsin. […]"}, "Hyaluronic acid synthase": {"test_system": "Hyaluronic acid synthase", "assay": "PCR gene expression, Hyaluronic acid synthase", "design": "key: (—): Not statistically significant", "method": "as §1, §2"}, "Beta-catenin": {"test_system": "Beta-catenin", "assay": "PCR gene expression, Beta-catenin", "method": "as §1, §2"}, "Collagen 7": {"test_system": "Collagen 7", "assay": "PCR gene expression, Collagen 7", "method": "as §1, §2"}, "Estrogen Receptor alpha": {"test_system": "Estrogen Receptor alpha", "assay": "PCR gene expression, Estrogen Receptor alpha", "method": "as §1, §2"}, "Collagen 4": {"test_system": "Collagen 4", "assay": "PCR gene expression, Collagen 4", "method": "as §1, §2"}},
  "note": "Values joined by “and” are separate entries in the source; they are usually repeats but may differ in a detail not shown here. Identical values can stand only once.",
  "data": [
    {"smiles": "CCNC(=O)CC[C@H](N)C(=O)O", "note": "[L-Theanine, L-theanine]", "values": [
      {"measurement": "Frizzled 10 Transcript #", "setting": "Frizzled 10", "result": "17.68 and 16.48 and 17.08"},
      {"measurement": "Hyaluronic acid synthase Transcript #", "setting": "Hyaluronic acid synthase", "result": "10.53 and 7.971 and 8.113"},
      {"measurement": "Beta-Catenin Transcript #", "setting": "Beta-catenin", "result": "10.31 and 8.678 (2×)"},
      {"measurement": "Collagen 7 Transcript #", "setting": "Collagen 7", "result": "12.87 and 10.72 and 11.44"},
      {"measurement": "Estrogen Receptor alpha Transcript #", "setting": "Estrogen Receptor alpha", "result": "13.03 and 12.39 and 7.627"},
      {"measurement": "Collagen 4 Transcript #", "setting": "Collagen 4", "result": "10.79 and 9.561 and 10.49"}
    ]},
    {"smiles": "CSC[C@H](N)C(=O)O", "note": "[S-Methyl-L-Cysteine]", "values": [
      {"measurement": "Frizzled 10 Transcript #", "setting": "Frizzled 10", "result": "18.65 and 16.26 and 18.41"},
      {"measurement": "Hyaluronic acid synthase Transcript #", "setting": "Hyaluronic acid synthase", "result": "—"},
      {"measurement": "Beta-Catenin Transcript #", "setting": "Beta-catenin", "result": "8.657 and 10.39 and 9.955"},
      {"measurement": "Collagen 7 Transcript #", "setting": "Collagen 7", "result": "14.83 and 16.55 (2×)"},
      {"measurement": "Estrogen Receptor alpha Transcript #", "setting": "Estrogen Receptor alpha", "result": "6.087 and 5.073"},
      {"measurement": "Collagen 4 Transcript #", "setting": "Collagen 4", "result": "9.845 and 10.83 and 9.353"}
    ]},
    {"smiles": "N[C@@H](CSc1ccccc1)C(=O)O", "note": "[S-Phenyl-L-Cysteine]", "values": [
      {"measurement": "Frizzled 10 Transcript #", "setting": "Frizzled 10", "result": "34.68 and 26.67 and 30.62"},
      {"measurement": "Hyaluronic acid synthase Transcript #", "setting": "Hyaluronic acid synthase", "result": "3.637 (2×) and 3.423"},
      {"measurement": "Beta-Catenin Transcript #", "setting": "Beta-catenin", "result": "14.67 and 15.49 and 11.41"},
      {"measurement": "Collagen 7 Transcript #", "setting": "Collagen 7", "result": "35.46 and 34.38 and 30.09"},
      {"measurement": "Estrogen Receptor alpha Transcript #", "setting": "Estrogen Receptor alpha", "result": "8.12 and 10.99 and 8.598"},
      {"measurement": "Collagen 4 Transcript #", "setting": "Collagen 4", "result": "7.416 and 8.343 and 8.807"}
    ]}
  ]
}
